Experimental data: US10065950B2, “Substituted thiazoles as HIV integrase inhibitors” (Japan Tobacco Inc., priority 2010, dated 2018)
pIC50: −log10 of the molar value.

Biological target: HIV-1 pNL4-3 integrase (Human immunodeficiency virus type 1 group M subtype B (isolate NY5) (HIV-1), UniProt P12497)
Test: Determination of enzyme (HIV integrase) inhibitory activity
Type: biochemical
Details: calculated from inhibition rate (fluorescence)
Procedure, shortened: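 Full-length pNL4-3 integrase from E. coli (0.75 μM stock) reacted 60 min at 37° C with compound and biotinylated donor DNA bound to streptavidin plates, in MOPS buffer with 5 mM MgCl2 and 10% DMSO. Digoxigenin-labelled target DNA (25 nM stock) then added for 20 min; strand transfer read by peroxidase anti-digoxigenin fluorescence (Ex 325/Em 420 nm).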

Q: With `CC(C)N1C[C@@](C)(C(=O)N2CCCC2)n2cc(-c3nnc(Cc4ccc(F)cc4F)s3)c(=O)c(O)c2C1=O` [Example 172] as the compound, how does the pIC50 read?
A: 7.85

Q: How did the pIC50 turn out when `CCNC(=O)[C@@]1(C)CN(C(C)C)C(=O)c2c(O)c(=O)c(-c3nnc(Cc4ccc(F)cc4F)s3)cn21` [Example 173] was run?
A: 7.80

Q: `CCNC(=O)[C@]1(C)CN(C(C)C)C(=O)c2c(O)c(=O)c(-c3nnc(Cc4ccc(F)cc4F)s3)cn21` [Example 174] was tested. Which pIC50 did it give?
A: 7.85

Q: `CC(C)N1CC2(CC2)n2cc(-c3nnc(Cc4ccc(F)cc4)s3)c(=O)c(O)c2C1=O` [Example 175] was tested. Which pIC50 did it give?
A: 8.02

Q: How did the pIC50 turn out when `CC(C)N1C(=O)c2c(O)c(=O)c(-c3nnc(Cc4ccc(F)cc4)s3)cn2CC12CC2` [Example 176] was run?
A: 8.07

Q: How did the pIC50 turn out when `CC(C)N1C[C@](C)(C(=O)N(C)C)n2cc(-c3nnc(Cc4ccc(F)cc4)s3)c(=O)c(O)c2C1=O` [Example 177] was run?
A: 7.77

Q: How did the pIC50 turn out when `CN(C)C(=O)[C@@]1(C)CN(C2CC2)C(=O)c2c(O)c(=O)c(-c3nnc(Cc4ccc(F)cc4)s3)cn21` [Example 178] was run?
A: 7.70

Q: How did the pIC50 turn out when `CC(C)N1C[C@](C)(C(=O)N2CCCC2)n2cc(-c3nnc(Cc4ccc(F)cc4)s3)c(=O)c(O)c2C1=O` [Example 179] was run?
A: 7.72

Q: With `CCNC(=O)[C@@]1(C)CN(C(C)C)C(=O)c2c(O)c(=O)c(-c3nnc(Cc4ccc(F)cc4)s3)cn21` [Example 180] as the compound, how does the pIC50 read?
A: 8.00

Q: How did the pIC50 turn out when `CN(C)C(=O)[C@@]1(C)CN(C(C)(C)C)C(=O)c2c(O)c(=O)c(-c3nnc(Cc4ccc(F)cc4)s3)cn21` [Example 181] was run?
A: 7.85

Q: How did the pIC50 turn out when `CC(C)N1C(=O)c2c(O)c(=O)c(-c3nnc(Cc4ccc(F)cc4)s3)cn2C[C@H]1CN(C)C(=O)C(C)(C)C` [Example 182] was run?
A: 8.01

Q: How did the pIC50 turn out when `CCC(C)(C)C(=O)N(C)C[C@@H]1Cn2cc(-c3nnc(Cc4ccc(F)cc4)s3)c(=O)c(O)c2C(=O)N1C(C)C` [Example 183] was run?
A: 8.00

Q: How did the pIC50 turn out when `CC(C)N1C(=O)c2c(O)c(=O)c(-c3nnc(Cc4ccc(F)cc4F)s3)cn2C[C@H]1CN(C)C(=O)C(C)(C)C` [Example 184] was run?
A: 8.22

Q: How did the pIC50 turn out when `CNC(=O)[C@@]1(C)CN(C(C)C)C(=O)c2c(O)c(=O)c(-c3nnc(Cc4ccc(F)cc4)s3)cn21` [Example 185] was run?
A: 7.82

Q: `CC(C)CNC(=O)[C@@]1(C)CN(C(C)C)C(=O)c2c(O)c(=O)c(-c3nnc(Cc4ccc(F)cc4)s3)cn21` [Example 186] was tested. Which pIC50 did it give?
A: 7.74

Q: With `CCNC(=O)[C@@]1(C)CN(C2CC2)C(=O)c2c(O)c(=O)c(-c3nnc(Cc4ccc(F)cc4)s3)cn21` [Example 187] as the compound, how does the pIC50 read?
A: 7.72

Q: How did the pIC50 turn out when `CC(C)(C)N1C[C@](C)(C(=O)N2CCCC2)n2cc(-c3nnc(Cc4ccc(F)cc4)s3)c(=O)c(O)c2C1=O` [Example 188] was run?
A: 7.74

Q: `CCNC(=O)[C@@]1(C)CN(C(C)(C)C)C(=O)c2c(O)c(=O)c(-c3nnc(Cc4ccc(F)cc4)s3)cn21` [Example 189] was tested. Which pIC50 did it give?
A: 7.70

Q: `CNC(=O)[C@]1(C)CN(C(C)C)C(=O)c2c(O)c(=O)c(-c3nnc(Cc4ccc(F)cc4F)s3)cn21` [Example 190] was tested. Which pIC50 did it give?
A: 7.96

Q: How did the pIC50 turn out when `CNC(=O)[C@@]1(C)CN(C(C)C)C(=O)c2c(O)c(=O)c(-c3nnc(Cc4ccc(F)cc4F)s3)cn21` [Example 191] was run?
A: 7.92

Q: How did the pIC50 turn out when `CC(C)N1C[C@@H](C(C)(C)C)n2cc(-c3nnc(Cc4ccc(F)cc4)s3)c(=O)c(O)c2C1=O` [Example 192] was run?
A: 7.82

Q: With `CC(C)N1C[C@H](C(C)(C)C)n2cc(-c3nnc(Cc4ccc(F)cc4)s3)c(=O)c(O)c2C1=O` [Example 193] as the compound, how does the pIC50 read?
A: 7.96

Q: `CC(C)[C@H]1CN(C(C)C)C(=O)c2c(O)c(=O)c(-c3nnc(Cc4ccc(F)cc4)s3)cn21` [Example 194] was tested. Which pIC50 did it give?
A: 8.09

Q: With `COC[C@@H]1Cn2cc(-c3nnc(Cc4ccc(F)cc4)s3)c(=O)c(O)c2C(=O)N1C1CCC1` [Example 195] as the compound, how does the pIC50 read?
A: 8.23

Q: How did the pIC50 turn out when `COC[C@@H]1Cn2cc(-c3nnc(Cc4ccc(F)cc4)s3)c(=O)c(O)c2C(=O)N1C1CCCC1` [Example 196] was run?
A: 8.17

Q: How did the pIC50 turn out when `CC(=O)N(C)C[C@@]1(C)CN(C(C)C)C(=O)c2c(O)c(=O)c(-c3nnc(Cc4ccc(F)cc4F)s3)cn21` [Example 197] was run?
A: 7.85

Q: `COC[C@@H]1Cn2cc(-c3nnc(Cc4ccc(F)cc4)s3)c(=O)c(O)c2C(=O)N1C(C)C1CC1` (some centres unmarked) [Example 198] was tested. Which pIC50 did it give?
A: 8.24

Q: With `CCN1C[C@](C)(C(=O)N(C)C)n2cc(-c3nnc(Cc4ccc(F)cc4)s3)c(=O)c(O)c2C1=O` [Example 199] as the compound, how does the pIC50 read?
A: 8.08

Q: `CCN1C[C@](C)(C(=O)N2CCCC2)n2cc(-c3nnc(Cc4ccc(F)cc4)s3)c(=O)c(O)c2C1=O` [Example 200] was tested. Which pIC50 did it give?
A: 8.02

Q: How did the pIC50 turn out when `CCNC(=O)[C@@]1(C)CN(CC)C(=O)c2c(O)c(=O)c(-c3nnc(Cc4ccc(F)cc4)s3)cn21` [Example 201] was run?
A: 8.02

Q: `COCCN(C)C(=O)[C@@]1(C)CN(C(C)C)C(=O)c2c(O)c(=O)c(-c3nnc(Cc4ccc(F)cc4)s3)cn21` [Example 202] was tested. Which pIC50 did it give?
A: 7.89

Q: With `CC(C)N1C[C@](C)(C(=O)N2CCOCC2)n2cc(-c3nnc(Cc4ccc(F)cc4)s3)c(=O)c(O)c2C1=O` [Example 203] as the compound, how does the pIC50 read?
A: 7.89

Q: How did the pIC50 turn out when `CC(C)N1C[C@](C)(C(=O)N2CC[C@H](O)C2)n2cc(-c3nnc(Cc4ccc(F)cc4)s3)c(=O)c(O)c2C1=O` [Example 204] was run?
A: 7.89

Q: How did the pIC50 turn out when `CC(C)N1C[C@](C)(C(=O)N2CC[C@@H](O)C2)n2cc(-c3nnc(Cc4ccc(F)cc4)s3)c(=O)c(O)c2C1=O` [Example 205] was run?
A: 7.89

Q: `COC[C@@H]1Cn2cc(-c3nnc(Cc4ccc(F)cc4)s3)c(=O)c(O)c2C(=O)N1C(C)C1CC1` (some centres unmarked) [Example 206] was tested. Which pIC50 did it give?
A: 8.23

Q: With `CCC(=O)N(C)C[C@@]1(C)CN(C(C)C)C(=O)c2c(O)c(=O)c(-c3nnc(Cc4ccc(F)cc4F)s3)cn21` [Example 207] as the compound, how does the pIC50 read?
A: 7.62

Q: With `CC(C)N1C[C@](C)(C(=O)N2CC(O)C2)n2cc(-c3nnc(Cc4ccc(F)cc4)s3)c(=O)c(O)c2C1=O` [Example 208] as the compound, how does the pIC50 read?
A: 7.92

Q: `COC1CN(C(=O)[C@@]2(C)CN(C(C)C)C(=O)c3c(O)c(=O)c(-c4nnc(Cc5ccc(F)cc5)s4)cn32)C1` [Example 209] was tested. Which pIC50 did it give?
A: 7.92

Q: `CC(C)N1C[C@](C)(CN(C)S(C)(=O)=O)n2cc(-c3nnc(Cc4ccc(F)cc4F)s3)c(=O)c(O)c2C1=O` [Example 210] was tested. Which pIC50 did it give?
A: 7.64

Q: With `CO[C@@H]1CCN(C(=O)[C@@]2(C)CN(C(C)C)C(=O)c3c(O)c(=O)c(-c4nnc(Cc5ccc(F)cc5)s4)cn32)C1` [Example 211] as the compound, how does the pIC50 read?
A: 7.80

Q: How did the pIC50 turn out when `CO[C@H]1CCN(C(=O)[C@@]2(C)CN(C(C)C)C(=O)c3c(O)c(=O)c(-c4nnc(Cc5ccc(F)cc5)s4)cn32)C1` [Example 212] was run?
A: 7.85

Q: With `CO[C@@H]1CCN(C(=O)[C@@]2(C)CN(C(C)C)C(=O)c3c(O)c(=O)c(-c4ncc(Cc5ccc(F)cc5)s4)cn32)C1` [Example 213] as the compound, how does the pIC50 read?
A: 7.82

Q: `CO[C@H]1CCN(C(=O)[C@@]2(C)CN(C(C)C)C(=O)c3c(O)c(=O)c(-c4ncc(Cc5ccc(F)cc5)s4)cn32)C1` [Example 214] was tested. Which pIC50 did it give?
A: 7.80

Q: `COC[C@@H]1Cn2cc(-c3ncc(Cc4ccc(F)cc4)s3)c(=O)c(O)c2C(=O)N1CC1CC1` [Example 217] was tested. Which pIC50 did it give?
A: 8.28

Q: How did the pIC50 turn out when `CCOC[C@@H]1Cn2cc(-c3ncc(Cc4ccc(F)cc4)s3)c(=O)c(O)c2C(=O)N1CC1CC1` [Example 218] was run?
A: 8.19

Q: How did the pIC50 turn out when `CCOc1cc(F)ccc1Cc1nnc(-c2cn3c(c(O)c2=O)C(=O)N(C(C)C)C[C@@H]3COC)s1` [Example 219] was run?
A: 7.82

Q: How did the pIC50 turn out when `COC[C@H]1CN(C(C)C)C(=O)c2c(O)c(=O)c(-c3nnc(Cc4c(F)cc(F)cc4OC)s3)cn21` [Example 220] was run?
A: 8.17

Q: How did the pIC50 turn out when `CC(C)[C@@H]1Cn2cc(-c3nnc(Cc4ccc(F)cc4)s3)c(=O)c(O)c2C(=O)N1C(C)C` [Example 221] was run?
A: 8.08

Q: `CCOC[C@@H]1Cn2cc(-c3ncc(Cc4ccc(F)cc4)s3)c(=O)c(O)c2C(=O)N1CC` [Example 222] was tested. Which pIC50 did it give?
A: 8.19

Q: `CC(C)N1C[C@@](C)(C(=O)N2CCC2)n2cc(-c3ncc(Cc4ccc(F)cc4)s3)c(=O)c(O)c2C1=O` [Example 223] was tested. Which pIC50 did it give?
A: 7.92

Q: How did the pIC50 turn out when `CC(C)[C@H]1Cn2cc(-c3nnc(Cc4ccc(F)cc4)s3)c(=O)c(O)c2C(=O)N1C(C)C` [Example 224] was run?
A: 8.14

Q: With `CC(C)N1C[C@@](C)(C(=O)N2CCCC2)n2cc(-c3ncc(Cc4ccc(F)cc4)s3)c(=O)c(O)c2C1=O` [Example 225] as the compound, how does the pIC50 read?
A: 7.74

Q: How did the pIC50 turn out when `CCNC(=O)[C@]1(C)CN(C(C)C)C(=O)c2c(O)c(=O)c(-c3ncc(Cc4ccc(F)cc4)s3)cn21` [Example 226] was run?
A: 7.89

Q: With `CNC(=O)[C@]1(C)CN(C(C)C)C(=O)c2c(O)c(=O)c(-c3ncc(Cc4ccc(F)cc4)s3)cn21` [Example 227] as the compound, how does the pIC50 read?
A: 7.89

Q: How did the pIC50 turn out when `COC[C@H]1CN(C(C)C)C(=O)c2c(O)c(=O)c(-c3nnc(Cc4cccc(Cl)c4)s3)cn21` [Example 228] was run?
A: 7.96

Q: `COC[C@H]1CN(C(C)C)C(=O)c2c(O)c(=O)c(-c3nnc(Cc4ccc(Cl)cc4F)s3)cn21` [Example 229] was tested. Which pIC50 did it give?
A: 7.92

Q: With `COC[C@H]1CN(C(C)C)C(=O)c2c(O)c(=O)c(-c3nnc(Cc4ccc(F)cc4Br)s3)cn21` [Example 230] as the compound, how does the pIC50 read?
A: 7.16

Q: With `COC[C@H]1CN(C(C)C)C(=O)c2c(O)c(=O)c(-c3nnc(Cc4ccc(F)cc4C)s3)cn21` [Example 231] as the compound, how does the pIC50 read?
A: 7.96

Q: How did the pIC50 turn out when `COC[C@@H]1[C@H](C)n2cc(-c3nnc(Cc4ccc(F)cc4)s3)c(=O)c(O)c2C(=O)N1C(C)C` [Example 232] was run?
A: 7.82

Q: How did the pIC50 turn out when `CC(C)N1C(=O)c2c(O)c(=O)c(-c3nnc(Cc4ccc(F)cc4)s3)cn2C[C@@H]1C` [Example 233] was run?
A: 8.19

Q: How did the pIC50 turn out when `CC(C)N1C[C@@](C)(C(=O)N(C)C)n2cc(-c3ncc(Cc4ccc(F)cc4)s3)c(=O)c(O)c2C1=O` [Example 234] was run?
A: 7.74

Q: How did the pIC50 turn out when `COCCN(C)C(=O)[C@]1(C)CN(C(C)C)C(=O)c2c(O)c(=O)c(-c3ncc(Cc4ccc(F)cc4)s3)cn21` [Example 235] was run?
A: 7.80

Q: `CC(C)N1C[C@](C)(C(=O)N2CCC2)n2cc(-c3ncc(Cc4ccc(F)cc4)s3)c(=O)c(O)c2C1=O` [Example 236] was tested. Which pIC50 did it give?
A: 7.89

Q: `COC1CN(C(=O)[C@@]2(C)CN(C(C)C)C(=O)c3c(O)c(=O)c(-c4ncc(Cc5ccc(F)cc5)s4)cn32)C1` [Example 237] was tested. Which pIC50 did it give?
A: 7.89

Q: `COCC1CN(C(=O)[C@@]2(C)CN(C(C)C)C(=O)c3c(O)c(=O)c(-c4ncc(Cc5ccc(F)cc5)s4)cn32)C1` [Example 238] was tested. Which pIC50 did it give?
A: 7.74
